Data published in publication PMC11431137, “[^68Ga]Ga-DOTAGA-Glu(FAPi)2 Shows Enhanced Tumor Uptake and Theranostic Potential in Preclinical PET Imaging” (Diagnostics, 2024).
Values joined by “and” are separate entries in the source; they are usually repeats but may differ in a detail not shown here. Identical values can stand only once.

Key:
[1] = logD7.4, shake flask method with n-octanol and phosphate-buffered saline (pH 7.4); assay type: physicochemical; details: n-octanol / PBS pH 7.4, shake flask
Excerpt: The kinetic profile of [^68Ga]Ga-DOTAGA-Glu-(FAPi)2 is explained considering its low lipophilicity, estimated by measuring the logD7.4 value using the shake flask method with n-octanol and phosphate-buffered saline (pH 7.4). The logD7.4 of −2.5 ± 0.05 indicates good hydrophilicity, leading to renal excretion over biliary excretion. […] Moreover, the compound is more hydrophilic than the first-generation dimer [^68Ga]Ga-DOTAGA.(SA.FAPi)2 (−2.0 ± 0.1) ([25]), resulting in lower background uptake and higher tumor-to-background image contrast.

[2] = Stability of radiochemical purity (RCP) post-formulation by radio-HPLC; assay type: physicochemical; details: formulated in phosphate buffer (0.1 M, pH 7) with ethanol
Experimental: Gallium-68 chloride was obtained by eluting the ^68Ge/^68Ga generator (Galliapharm, Eckert & Ziegler, Berlin, Germany) with 0.1 M HCl. Ammonium acetate buffer (0.1 M, pH 5.5), and a DOTAGA-Glu(FAPi)2 stock solution (2 mg/mL) for labeling was prepared using water for ultratrace analysis (Merck, Darmstadt, Germany). [^68Ga]GaCl3 solution in 0.1 M HCl (500 µL, ca. 200 MBq ^68Ga) was mixed with ammonium acetate buffer (80 µL) and DOTAGA-Glu-(FAPi)2 stock solution (4 µL). The resulting mixture was placed on an agitating mixer and shaken at 600 rpm for 5 min at 60 °C. Afterward, the reaction mixture was diluted with 5 mL water and passed through a Strata-X 33 µm polymeric reversed-phase cartridge (Phenomenex, Torrance, CA, USA). The cartridge was rinsed with more water (0.3 mL) and eluted with absolute ethanol (0.5 mL). Ethanol was evaporated under nitrogen flow and gentle heating to 40 °C. The residue was resolubilized in an aliquot of fresh ethanol (20 µL) and further diluted with phosphate buffer (0.1 M, pH 7) to a total volume of 2 mL.
Radiochemical conversion (RCC) for the ^68Ga-labeling process and radiochemical purity (RCP) of the formulated [^68Ga]Ga-DOTAGA-Glu(FAPi)2 were assessed by radio-HPLC.

[3] = tested on: endogenously FAP-expressing xenografted mouse model, U87MG; assay: In vivo PET/CT imaging, organ distribution in U87MG xenografted mice
Excerpt: Six-week-old female NMRI nude mice were purchased (Janvier, Le Genest-Saint-Isle, France) and housed in groups of 4–8 mice in individually ventilated cages under regular lighting conditions. They were fed a standard pathogen-free pellet diet and provided water ad libitum. All animal experiments were approved by The Animal Experiments Inspectorate in Denmark (2021-15-0201-01041). The animals were acclimatized for two weeks before study initiation.
To establish a tumor model, the mice were subcutaneously inoculated on the right flank with a human xenograft glioblastoma U87MG (HTB-14, ATCC, Manassas, VA, USA). These cells were cultivated in Dulbecco’s modified Eagle’s medium (DMEM) supplemented with fetal bovine serum (FBS) and penicillin–streptomycin (Pen/Strep). Tumor growth was monitored two times weekly using calipers.
After adequate tumor establishment, the animals were injected intravenously in the tail vein with 4.49 ± 0.04 MBq [^68Ga]Ga-DOTAGA-Glu(FAPi)2 in a 100 μL phosphate buffer (0.1 M, pH 7) with 1% ethanol (v/v). PET/CT imaging (Inveon, Siemens Healthineers, Knoxville, TN, USA) was performed immediately after injection, and PET data were acquired for 3000 s. The imaging protocol included a dynamic framing setup, with five consecutive frames of 600 s each, resulting in average time intervals of 0–10, 10–20, 20–30, 30–40, and 40–50 min post-injection. During imaging, body temperature was maintained using a heated platform.
PET images were reconstructed using the 3D-OSEM/SP-MAP algorithm, and attenuation correction was performed using the co-registered CT images. The activity concentration was decay-corrected to the time of injection and quantified using Inveon Research Workplace (IRW). Regions of interest were manually drawn on CT images to delineate organs and derive volume and activity. Subsequently, the percentage of injected dose per gram (% ID/g) was calculated for tumor, blood, liver, kidney, and muscle tissues for each frame.
All graphical representations of the data were generated using Prism version 10.1.0 (1994–2023, GraphPad Software, LLC, Boston, MA, USA). The results were expressed as the mean ± standard error of the mean (SEM).

[4] = 5 min post-injection, Mean±SEM, n = 4 mice
[5] = 5 min post-injection, individual mice M1-M4
[6] = 15 min post-injection, Mean±SEM, n = 4 mice
[7] = 15 min post-injection, individual mice M1-M4
[8] = 25 min post-injection, Mean±SEM, n = 4 mice
[9] = 25 min post-injection, individual mice M1-M4
[10] = 35 min post-injection, Mean±SEM, n = 4 mice
[11] = 35 min post-injection, individual mice M1-M4
[12] = 45 min post-injection, Mean±SEM, n = 4 mice, listed as [68Ga]Ga-DOTAGA-Glu-(FAPi)2
[13] = 45 min post-injection, Mean±SEM, n = 4 mice, listed as [^68Ga]Ga-DOTAGA-Glu-(FAPi)2
[14] = 45 min post-injection, individual mice M1-M4

With `N#C[C@@H]1CC(F)(F)CN1C(=O)CNC(=O)c1ccnc2ccc(OCCCCNC(=O)CC[C@H](NC(=O)CCC(C(=O)O)N3CCN(CC(=O)[O-])CCN(CC(=O)[O-])CCN(CC(=O)[O-])CC3)C(=O)NCCCCOc3ccc4nccc(C(=O)NCC(=O)N5CC(F)(F)C[C@H]5C#N)c4c3)cc12.[68Ga+3]` (stereo partly drawn) [[^68Ga]Ga-DOTAGA-Glu(FAPi)2] the logD7.4 [1] was −2.5 ± 0.05, the RCP stable post-formulation [2] was “at least 1 h” and the “Organ distribution, bladder” value [3, 4] was 3.96±0.42 %ID/g. For the same molecule, the “Organ distribution, kidney” value [3, 4] was 6.68±0.48 %ID/g, the “Organ distribution, liver” value [3, 4] was 5.83±0.58 %ID/g and the “Organ distribution, tumor” value [3, 4] was 2.55±0.38 %ID/g. For the same molecule, the “Tumor-to-blood ratio (TBR)” value [3, 4] was 0.46±0.05, the “Tumor-to-kidney ratio (TKR)” value [3, 4] was 0.38±0.03 and the “Tumor-to-liver ratio (TLR)” value [3, 4] was 0.43±0.03. For the same molecule, the “Tumor-to-muscle ratio (TMR)” value [3, 4] was 3.66±0.13, the “Organ distribution, bladder” value [3, 5] was 4.80 %ID/g and 4.51 %ID/g and 3.00 %ID/g and 3.51 %ID/g and the “Organ distribution, blood” value [3, 5] was 5.98 %ID/g. The “Organ distribution, kidney” value [3, 5] was 7.50 %ID/g and 7.11 %ID/g and 6.77 %ID/g and 5.32 %ID/g, the “Organ distribution, liver” value [3, 5] was 6.93 %ID/g and 6.06 %ID/g and 6.15 %ID/g and 4.19 %ID/g and the “Organ distribution, tumor” value [3, 5] was 3.52 %ID/g and 2.54 %ID/g and 1.66 %ID/g. The “Tumor-to-blood ratio (TBR)” value [3, 5] was 0.59 and 0.42 and 0.37 and 0.44, the “Tumor-to-kidney ratio (TKR)” value [3, 5] was 0.47 and 0.35 and 0.38 and 0.31 and the “Tumor-to-liver ratio (TLR)” value [3, 5] was 0.51 and 0.41 (2×) and 0.40. The “Tumor-to-muscle ratio (TMR)” value [3, 5] was 3.52 and 3.35 and 3.91 and 3.86, the “Organ distribution, bladder” value [3, 6] was 25±2.12 %ID/g and the “Organ distribution, kidney” value [3, 6] was 7.08±0.56 %ID/g. For the same molecule, the “Organ distribution, liver” value [3, 6] was 4.02±0.15 %ID/g, the “Organ distribution, tumor” value [3, 6] was 4.28±0.37 %ID/g and the “Tumor-to-blood ratio (TBR)” value [3, 6] was 0.92±0.10. The “Tumor-to-kidney ratio (TKR)” value [3, 6] was 0.61±0.05, the “Tumor-to-liver ratio (TLR)” value [3, 6] was 1.06±0.07 and the “Tumor-to-muscle ratio (TMR)” value [3, 6] was 3.68±0.32. For the same molecule, the “Organ distribution, bladder” value [3, 7] was 20.10 %ID/g and 25.42 %ID/g and 30.39 %ID/g and 24.10 %ID/g, the “Organ distribution, blood” value [3, 7] was 4.04 %ID/g and the “Organ distribution, kidney” value [3, 7] was 6.09 %ID/g and 6.56 %ID/g and 8.67 %ID/g and 7.01 %ID/g. For the same molecule, the “Organ distribution, liver” value [3, 7] was 3.79 %ID/g and 3.93 %ID/g and 4.45 %ID/g and 3.92 %ID/g, the “Organ distribution, tumor” value [3, 7] was 5.16 %ID/g and 3.44 %ID/g and 4.56 %ID/g and the “Tumor-to-blood ratio (TBR)” value [3, 7] was 1.04 and 0.69 and 1.13 and 0.84. For the same molecule, the “Tumor-to-kidney ratio (TKR)” value [3, 7] was 0.75 and 0.60 and 0.59 and 0.49, the “Tumor-to-liver ratio (TLR)” value [3, 7] was 1.20 and 1.00 and 1.16 and 0.88 and the “Tumor-to-muscle ratio (TMR)” value [3, 7] was 3.40 and 3.28 and 4.65 and 3.37. The “Organ distribution, bladder” value [3, 8] was 42.54±5.06 %ID/g, the “Organ distribution, kidney” value [3, 8] was 4.02±0.60 %ID/g and the “Organ distribution, liver” value [3, 8] was 3.21±0.11 %ID/g. For the same molecule, the “Organ distribution, tumor” value [3, 8] was 4.49±0.45 %ID/g, the “Tumor-to-blood ratio (TBR)” value [3, 8] was 1.12±0.15 and the “Tumor-to-kidney ratio (TKR)” value [3, 8] was 1.14±0.07. The “Tumor-to-liver ratio (TLR)” value [3, 8] was 1.40±0.12, the “Tumor-to-muscle ratio (TMR)” value [3, 8] was 3.71±0.40 and the “Organ distribution, bladder” value [3, 9] was 31.21 %ID/g and 41.63 %ID/g and 55.86 %ID/g and 41.46 %ID/g. The “Organ distribution, blood” value [3, 9] was 3.66 %ID/g, the “Organ distribution, kidney” value [3, 9] was 3.47 %ID/g and 3.78 %ID/g and 5.77 %ID/g and 3.07 %ID/g and the “Organ distribution, liver” value [3, 9] was 2.94 %ID/g and 3.20 %ID/g and 3.49 %ID/g and 3.19 %ID/g. For the same molecule, the “Organ distribution, tumor” value [3, 9] was 5.65 %ID/g and 3.51 %ID/g and 4.60 %ID/g, the “Tumor-to-blood ratio (TBR)” value [3, 9] was 1.46 and 0.76 and 1.26 and 1.01 and the “Tumor-to-kidney ratio (TKR)” value [3, 9] was 1.33 and 1.11 and 0.98 and 1.14. For the same molecule, the “Tumor-to-liver ratio (TLR)” value [3, 9] was 1.56 and 1.31 and 1.62 and 1.10, the “Tumor-to-muscle ratio (TMR)” value [3, 9] was 3.57 and 3.36 and 4.87 and 3.03 and the “Organ distribution, bladder” value [3, 10] was 50.28±7.13 %ID/g. For the same molecule, the “Organ distribution, kidney” value [3, 10] was 2.78±0.44 %ID/g, the “Organ distribution, liver” value [3, 10] was 2.88±0.08 %ID/g and the “Organ distribution, tumor” value [3, 10] was 4.62±0.51 %ID/g. The “Tumor-to-blood ratio (TBR)” value [3, 10] was 1.29±0.21, the “Tumor-to-kidney ratio (TKR)” value [3, 10] was 1.70±0.10 and the “Tumor-to-liver ratio (TLR)” value [3, 10] was 1.60±0.16. For the same molecule, the “Tumor-to-muscle ratio (TMR)” value [3, 10] was 3.74±0.37, the “Organ distribution, bladder” value [3, 11] was 35.81 %ID/g and 47.82 %ID/g and 69.95 %ID/g and 47.53 %ID/g and the “Organ distribution, blood” value [3, 11] was 3.44 %ID/g. For the same molecule, the “Organ distribution, kidney” value [3, 11] was 2.39 %ID/g and 2.64 %ID/g and 4.04 %ID/g and 2.06 %ID/g, the “Organ distribution, liver” value [3, 11] was 2.67 %ID/g and 2.93 %ID/g and 3.06 %ID/g and 2.85 %ID/g and the “Organ distribution, tumor” value [3, 11] was 5.95 %ID/g and 3.52 %ID/g and 4.68 %ID/g. For the same molecule, the “Tumor-to-blood ratio (TBR)” value [3, 11] was 1.85 and 0.85 and 1.36 and 1.11, the “Tumor-to-kidney ratio (TKR)” value [3, 11] was 1.96 and 1.64 and 1.47 and 1.71 and the “Tumor-to-liver ratio (TLR)” value [3, 11] was 1.75 and 1.48 and 1.94 and 1.24. For the same molecule, the “Tumor-to-muscle ratio (TMR)” value [3, 11] was 3.66 and 3.17 and 4.80 and 3.32, the “Organ distribution, bladder” value ([3]; 45 min post-injection, Mean±SEM, n = 4 mice) was 53.81±7.59 %ID/g and the “Organ distribution, kidney” value [3, 12] was 2.16±0.21 %ID/g. For the same molecule, the “Organ distribution, liver” value [3, 12] was 2.73±0.09 %ID/g, the “Organ distribution, tumor” value [3, 12] was 4.65±0.52 %ID/g and the “Tumor-to-blood ratio (TBR)” value [3, 12] was 1.38±0.25. For the same molecule, the “Tumor-to-kidney ratio (TKR)” value [3, 12] was 2.15±0.08, the “Tumor-to-liver ratio (TLR)” value [3, 12] was 1.71±0.17 and the “Tumor-to-muscle ratio (TMR)” value [3, 12] was 3.88±0.41. The “Tumor-to-blood ratio (TBR)” value [3, 13] was 1.4 ± 0.3, the “Tumor-to-liver ratio (TLR)” value [3, 13] was 1.7 ± 0.2 and the “Tumor-to-muscle ratio (TMR)” value [3, 13] was 3.9 ± 0.4. For the same molecule, the “Organ distribution, bladder” value [3, 14] was 39.77 %ID/g and 49.32 %ID/g and 75.38 %ID/g and 50.79 %ID/g, the “Organ distribution, kidney” value [3, 14] was 1.99 %ID/g and 2.17 %ID/g and 2.73 %ID/g and 1.74 %ID/g and the “Organ distribution, liver” value [3, 14] was 2.47 %ID/g and 2.78 %ID/g and 2.91 %ID/g and 2.75 %ID/g. The “Organ distribution, tumor” value [3, 14] was 4.40 %ID/g and 6.01 %ID/g and 3.52 %ID/g and 4.68 %ID/g, the “Tumor-to-blood ratio (TBR)” value [3, 14] was 1.19 and 2.06 and 0.88 and 1.38 and the “Tumor-to-kidney ratio (TKR)” value [3, 14] was 2.35 and 2.03 and 2.20 and 2.02. For the same molecule, the “Tumor-to-liver ratio (TLR)” value [3, 14] was 1.89 and 1.58 and 2.07 and 1.28, the “Tumor-to-muscle ratio (TMR)” value [3, 14] was 3.52 and 3.41 and 5.09 and 3.49 and the clearance route ([3]; PET/CT, U87MG tumor-bearing mice) was “cleared mainly by the kidneys”.
